{"source": "patent US6737383B1", "about": "“Herbicidal oxadiazolidines” (priority 1999, dated 2004)", "key": {"redroot pigweed": {"system": "redroot pigweed", "assay": "Test C postemergence redroot pigweed", "format": "in vivo, Amaranthus retroflexus", "conditions": "0 to 100 scale, 0 no effect, 100 complete control", "in_short": "(§1)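 Foliar postemergence treatment of greenhouse plants grown in 60:40 sandy loam:potting mix; compounds delivered in non-phytotoxic solvent with surfactant. Evaluation is visual, 0–100, after ~14–21 d.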"}, "hairy beggarticks": {"system": "hairy beggarticks", "assay": "Test C postemergence hairy beggarticks", "format": "in vivo, Bidens pilosa", "conditions": "0 to 100 scale, 0 no effect, 100 complete control", "in_short": "as §1"}, "velvetleaf": {"system": "velvetleaf", "assay": "Test C postemergence velvetleaf", "format": "in vivo, Abutilon theophrasti", "conditions": "0 to 100 scale, 0 no effect, 100 complete control", "in_short": "as §1"}, "soybean": {"system": "soybean", "assay": "Test C postemergence soybean", "format": "in vivo, Glycine max", "conditions": "0 to 100 scale, 0 no effect, 100 complete control", "in_short": "as §1"}, "purple nutsedge": {"system": "purple nutsedge", "assay": "Test C postemergence purple nutsedge", "format": "in vivo, Cyperus rotundus", "conditions": "0 to 100 scale, 0 no effect, 100 complete control", "in_short": "as §1"}, "corn": {"system": "corn", "assay": "Test C postemergence corn", "format": "in vivo, Zea mays", "conditions": "0 to 100 scale, 0 no effect, 100 complete control", "in_short": "as §1"}, "lambsquarters": {"system": "lambsquarters", "assay": "Test C postemergence lambsquarters", "format": "in vivo, Chenopodium album", "conditions": "0 to 100 scale, 0 no effect, 100 complete control", "in_short": "as §1"}, "cocklebur": {"system": "cocklebur", "assay": "Test C postemergence cocklebur", "format": "in vivo, Xanthium strumarium", "conditions": "0 to 100 scale, 0 no effect, 100 complete control", "in_short": "as §1"}, "eastern black nightshade": {"system": "eastern black nightshade", "assay": "Test C postemergence eastern black nightshade", "format": "in vivo, Solanum ptycanthum", "conditions": "0 to 100 scale, 0 no effect, 100 complete control", "in_short": "as §1"}, "Green foxtail": {"system": "Green foxtail", "assay": "Test D green foxtail", "format": "in vivo", "conditions": "Rate 500 g/ha; Preemergence; 0 to 100 scale", "in_short": "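Greenhouse pots, seeds in sandy loam; compounds formulated in non-phytotoxic solvent with surfactant; preemergence treatments went on the soil surface within one day of planting. Injury rated visually 14 to 21 days after application on a 0 (none) to 100 (complete control) scale.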"}, "ladysthumb smartweed": {"system": "ladysthumb smartweed", "assay": "Test C postemergence ladysthumb smartweed", "format": "in vivo, Polygonum persicaria", "conditions": "0 to 100 scale, 0 no effect, 100 complete control", "in_short": "as §1"}, "giant foxtail": {"system": "giant foxtail", "assay": "Test C postemergence giant foxtail", "format": "in vivo, Setaria faberii", "conditions": "0 to 100 scale, 0 no effect, 100 complete control", "in_short": "as §1"}, "johnsongrass": {"system": "johnsongrass", "assay": "Test C postemergence johnsongrass", "format": "in vivo, Sorghum halepense", "conditions": "0 to 100 scale, 0 no effect, 100 complete control", "in_short": "as §1"}, "wild poinsettia": {"system": "wild poinsettia", "assay": "Test C postemergence wild poinsettia", "format": "in vivo, Euphorbia heterophylla", "conditions": "0 to 100 scale, 0 no effect, 100 complete control", "in_short": "as §1"}, "arrowleaf sida": {"system": "arrowleaf sida", "assay": "Test C postemergence arrowleaf sida", "format": "in vivo, Sida rhombifolia", "conditions": "0 to 100 scale, 0 no effect, 100 complete control", "in_short": "as §1"}, "fall panicum": {"system": "fall panicum", "assay": "Test C postemergence fall panicum", "format": "in vivo, Panicum dichotomiflorum", "conditions": "0 to 100 scale, 0 no effect, 100 complete control", "in_short": "as §1"}, "cotton": {"system": "cotton", "assay": "Test C postemergence cotton", "format": "in vivo, Gossypium hirsutum", "conditions": "0 to 100 scale, 0 no effect, 100 complete control", "in_short": "as §1"}, "surinam grass": {"system": "surinam grass", "assay": "Test C postemergence surinam grass", "format": "in vivo, Brachiaria decumbens", "conditions": "0 to 100 scale, 0 no effect, 100 complete control", "in_short": "as §1"}, "ivyleaf morningglory": {"system": "ivyleaf morningglory", "assay": "Test C postemergence ivyleaf morningglory", "format": "in vivo, Ipomoea hederacea", "conditions": "0 to 100 scale, 0 no effect, 100 complete control", "in_short": "as §1"}, "large crabgrass": {"system": "large crabgrass", "assay": "Test C postemergence large crabgrass", "format": "in vivo, Digitaria sanguinalis", "conditions": "0 to 100 scale, 0 no effect, 100 complete control", "in_short": "as §1"}, "common ragweed": {"system": "common ragweed", "assay": "Test C postemergence common ragweed", "format": "in vivo, Ambrosia elatior", "conditions": "0 to 100 scale, 0 no effect, 100 complete control", "in_short": "as §1"}}}
{"smiles": "CC(C)N(C(=O)n1oc(=O)n(Cc2ccccc2)c1=O)c1ccccc1", "note": "[Compound 94]", "values": [{"measurement": "Plant response rating, Redroot pigweed", "setting": "redroot pigweed; Rate 560 g/ha", "result": 0}, {"measurement": "Plant response rating, Redroot pigweed", "setting": "redroot pigweed; Rate 1120 g/ha", "result": 0}, {"measurement": "Plant response rating H. beggarticks", "setting": "hairy beggarticks; Rate 140 g/ha", "result": 0}, {"measurement": "Plant response rating H. beggarticks", "setting": "hairy beggarticks; Rate 280 g/ha", "result": 0}, {"measurement": "Plant response rating H. beggarticks", "setting": "hairy beggarticks; Rate 560 g/ha", "result": 5}, {"measurement": "Plant response rating H. beggarticks", "setting": "hairy beggarticks; Rate 1120 g/ha", "result": 20}, {"measurement": "Plant response rating, Velvetleaf", "setting": "velvetleaf; Rate 140 g/ha", "result": 5}, {"measurement": "Plant response rating, Velvetleaf", "setting": "velvetleaf; Rate 280 g/ha", "result": 5}, {"measurement": "Plant response rating, Velvetleaf", "setting": "velvetleaf; Rate 560 g/ha", "result": 20}, {"measurement": "Plant response rating, Velvetleaf", "setting": "velvetleaf; Rate 1120 g/ha", "result": 40}, {"measurement": "Plant response rating, Soybean", "setting": "soybean; Rate 140 g/ha", "result": 15}, {"measurement": "Plant response rating, Soybean", "setting": "soybean; Rate 280 g/ha", "result": 15}, {"measurement": "Plant response rating, Soybean", "setting": "soybean; Rate 560 g/ha", "result": 30}, {"measurement": "Plant response rating, Soybean", "setting": "soybean; Rate 1120 g/ha", "result": 55}, {"measurement": "Plant response rating, Purple nutsedge", "setting": "purple nutsedge; Rate 140 g/ha", "result": 0}, {"measurement": "Plant response rating, Purple nutsedge", "setting": "purple nutsedge; Rate 280 g/ha", "result": 0}, {"measurement": "Plant response rating, Purple nutsedge", "setting": "purple nutsedge; Rate 560 g/ha", "result": 0}, {"measurement": "Plant response rating, Purple nutsedge", "setting": "purple nutsedge; Rate 1120 g/ha", "result": 0}, {"measurement": "Plant response rating, Corn", "setting": "corn; Rate 140 g/ha", "result": 0}, {"measurement": "Plant response rating, Corn", "setting": "corn; Rate 280 g/ha", "result": 0}, {"measurement": "Plant response rating, Corn", "setting": "corn; Rate 560 g/ha", "result": 0}, {"measurement": "Plant response rating, Corn", "setting": "corn; Rate 1120 g/ha", "result": 0}, {"measurement": "Plant response rating Lambsquarters", "setting": "lambsquarters; Rate 140 g/ha", "result": 0}, {"measurement": "Plant response rating Lambsquarters", "setting": "lambsquarters; Rate 280 g/ha", "result": 5}, {"measurement": "Plant response rating Lambsquarters", "setting": "lambsquarters; Rate 560 g/ha", "result": 10}, {"measurement": "Plant response rating Lambsquarters", "setting": "lambsquarters; Rate 1120 g/ha", "result": 30}, {"measurement": "Plant response rating, Cocklebur", "setting": "cocklebur; Rate 140 g/ha", "result": 0}, {"measurement": "Plant response rating, Cocklebur", "setting": "cocklebur; Rate 280 g/ha", "result": 0}, {"measurement": "Plant response rating E. blacknightsh", "setting": "eastern black nightshade; Rate 140 g/ha", "result": 0}, {"measurement": "Plant response rating E. blacknightsh", "setting": "eastern black nightshade; Rate 280 g/ha", "result": 40}, {"measurement": "Plant response rating E. blacknightsh", "setting": "eastern black nightshade; Rate 560 g/ha", "result": 75}, {"measurement": "Plant response rating E. blacknightsh", "setting": "eastern black nightshade; Rate 1120 g/ha", "result": 95}, {"measurement": "Plant response rating, Green foxtail", "setting": "Green foxtail", "result": 100}, {"measurement": "Plant response rating Ladysthumb", "setting": "ladysthumb smartweed; Rate 140 g/ha", "result": 5}, {"measurement": "Plant response rating Ladysthumb", "setting": "ladysthumb smartweed; Rate 280 g/ha", "result": 10}, {"measurement": "Plant response rating Ladysthumb", "setting": "ladysthumb smartweed; Rate 560 g/ha", "result": 85}, {"measurement": "Plant response rating Ladysthumb", "setting": "ladysthumb smartweed; Rate 1120 g/ha", "result": 90}, {"measurement": "Plant response rating, Giant foxtail", "setting": "giant foxtail; Rate 140 g/ha", "result": 0}, {"measurement": "Plant response rating, Giant foxtail", "setting": "giant foxtail; Rate 280 g/ha", "result": 0}, {"measurement": "Plant response rating, Giant foxtail", "setting": "giant foxtail; Rate 560 g/ha", "result": 10}, {"measurement": "Plant response rating, Giant foxtail", "setting": "giant foxtail; Rate 1120 g/ha", "result": 40}, {"measurement": "Plant response rating Johnsongrass", "setting": "johnsongrass; Rate 140 g/ha", "result": 0}, {"measurement": "Plant response rating Johnsongrass", "setting": "johnsongrass; Rate 280 g/ha", "result": 0}, {"measurement": "Plant response rating Johnsongrass", "setting": "johnsongrass; Rate 560 g/ha", "result": 0}, {"measurement": "Plant response rating Johnsongrass", "setting": "johnsongrass; Rate 1120 g/ha", "result": 0}, {"measurement": "Plant response rating Wild poinsettia", "setting": "wild poinsettia; Rate 140 g/ha", "result": 0}, {"measurement": "Plant response rating Wild poinsettia", "setting": "wild poinsettia; Rate 280 g/ha", "result": 0}, {"measurement": "Plant response rating Wild poinsettia", "setting": "wild poinsettia; Rate 560 g/ha", "result": 60}, {"measurement": "Plant response rating Wild poinsettia", "setting": "wild poinsettia; Rate 1120 g/ha", "result": 85}, {"measurement": "Plant response rating Arrowleaf sida", "setting": "arrowleaf sida; Rate 280 g/ha", "result": 10}, {"measurement": "Plant response rating Arrowleaf sida", "setting": "arrowleaf sida; Rate 560 g/ha", "result": 80}, {"measurement": "Plant response rating Arrowleaf sida", "setting": "arrowleaf sida; Rate 1120 g/ha", "result": 80}, {"measurement": "Plant response rating Fall panicum", "setting": "fall panicum; Rate 140 g/ha", "result": 0}, {"measurement": "Plant response rating Fall panicum", "setting": "fall panicum; Rate 280 g/ha", "result": 0}, {"measurement": "Plant response rating Fall panicum", "setting": "fall panicum; Rate 560 g/ha", "result": 10}, {"measurement": "Plant response rating Fall panicum", "setting": "fall panicum; Rate 1120 g/ha", "result": 70}, {"measurement": "Plant response rating Cotton", "setting": "cotton; Rate 140 g/ha", "result": 20}, {"measurement": "Plant response rating Cotton", "setting": "cotton; Rate 280 g/ha", "result": 70}, {"measurement": "Plant response rating Cotton", "setting": "cotton; Rate 560 g/ha", "result": 70}, {"measurement": "Plant response rating Cotton", "setting": "cotton; Rate 1120 g/ha", "result": 80}, {"measurement": "Plant response rating Surinam grass", "setting": "surinam grass; Rate 140 g/ha", "result": 0}, {"measurement": "Plant response rating Surinam grass", "setting": "surinam grass; Rate 280 g/ha", "result": 0}, {"measurement": "Plant response rating Surinam grass", "setting": "surinam grass; Rate 560 g/ha", "result": 0}, {"measurement": "Plant response rating Surinam grass", "setting": "surinam grass; Rate 1120 g/ha", "result": 10}, {"measurement": "Plant response rating I. morningglory", "setting": "ivyleaf morningglory; Rate 140 g/ha", "result": 0}, {"measurement": "Plant response rating I. morningglory", "setting": "ivyleaf morningglory; Rate 280 g/ha", "result": 10}, {"measurement": "Plant response rating I. morningglory", "setting": "ivyleaf morningglory; Rate 560 g/ha", "result": 90}, {"measurement": "Plant response rating Large crabgrass", "setting": "large crabgrass; Rate 140 g/ha", "result": 0}, {"measurement": "Plant response rating Large crabgrass", "setting": "large crabgrass; Rate 280 g/ha", "result": 0}, {"measurement": "Plant response rating Large crabgrass", "setting": "large crabgrass; Rate 560 g/ha", "result": 70}, {"measurement": "Plant response rating Common ragweed", "setting": "common ragweed; Rate 140 g/ha", "result": 0}, {"measurement": "Plant response rating Common ragweed", "setting": "common ragweed; Rate 280 g/ha", "result": 0}, {"measurement": "Plant response rating Common ragweed", "setting": "common ragweed; Rate 560 g/ha", "result": 5}, {"measurement": "Plant response rating Common ragweed", "setting": "common ragweed; Rate 1120 g/ha", "result": 5}]}
